Assay results reported in PubChem BioAssay (NCI).
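Growth conditions: 96-well plates. Treatment: test compound, 48 hours, 5 concentrations. Analysis: linear interpolation between bracketing concentrations; unreached endpoints set to highest concentration. The concentration for 50% growth inhibition is given as GI50. At the TGI there is no net growth.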

Experiments:
Test in all cases: NCI anticancer screen, dose series, 48 h
[1] = test system: OVCAR-8 ovarian
[2] = test system: NCI-H522 lung
[3] = test system: PC-3 prostate
[4] = test system: SF-539 CNS
[5] = test system: CAKI-1 renal
[6] = test system: OVCAR-5 ovarian
[7] = test system: 786-0 renal
[8] = test system: U251 CNS
[9] = test system: MDA-MB-468 breast
[10] = test system: SNB-75 CNS
[11] = test system: COLO 205 colon
[12] = test system: HS 578T breast
[13] = test system: SN12C renal
[14] = test system: UO-31 renal
[15] = test system: BT-549 breast
[16] = test system: T-47D breast
[17] = test system: MALME-3M melanoma
[18] = test system: HCT-116 colon
[19] = test system: MDA-MB-231 breast
[20] = test system: K-562 leukemia
[21] = test system: IGROV1 ovarian
[22] = test system: SF-268 CNS
[23] = test system: A498 renal
[24] = test system: UACC-62 melanoma
[25] = test system: EKVX NSCLC
[26] = test system: HL-60(TB) leukemia
[27] = test system: HCC-2998 colon
[28] = test system: NCI-H460 lung
[29] = test system: SK-MEL-28 melanoma
[30] = test system: LOX IMVI melanoma
[31] = test system: OVCAR-3 ovarian
[32] = test system: ACHN renal
[33] = test system: HOP-92 NSCLC
[34] = test system: RPMI-8226 leukemia
[35] = test system: SK-OV-3 ovarian
[36] = test system: RXF 393 renal
[37] = test system: NCI-H226 lung
[38] = test system: SK-MEL-5 melanoma
[39] = test system: SK-MEL-2 melanoma
[40] = test system: M14 melanoma
[41] = test system: KM12 colon
[42] = test system: MCF7 breast
[43] = test system: A549 NSCLC
[44] = test system: HCT-15 colon
[45] = test system: TK-10 renal
[46] = test system: CCRF-CEM leukemia
[47] = test system: UACC-257 melanoma
[48] = test system: SW-620 colon
[49] = test system: DU-145 prostate
[50] = test system: MDA-MB-435
[51] = test system: NCI/ADR-RES ovarian
[52] = test system: OVCAR-4 ovarian
[53] = test system: SNB-19 CNS
[54] = test system: MOLT-4 leukemia
[55] = test system: SF-295 CNS
[56] = test system: HOP-62 NSCLC
[57] = test system: NCI-H23 lung
[58] = test system: HT29 colon

Cc1ccccc1[C@H]1C(C(=O)c2ccc(Cl)cc2)C2(N[C@@H]1c1ccccc1)C(=O)Nc1ccc(Cl)cc12 (stereo partly specified)
GI50 [1]: 6.41 µM
TGI [1]: 14.5 µM
GI50 [2]: 5.52 µM
TGI [2]: 10.8 µM
GI50 [3]: 4.02 µM
TGI [3]: 10.6 µM
GI50 [4]: 6.2 µM
TGI [4]: 11.7 µM
GI50 [5]: 4.23 µM
TGI [5]: 9.47 µM
GI50 [6]: 5.39 µM
TGI [6]: 10.6 µM
GI50 [7]: 5.75 µM
TGI [7]: 11.1 µM
GI50 [8]: 5.85 µM
TGI [8]: 11.7 µM
GI50 [9]: 4.98 µM
TGI [9]: 10.1 µM
GI50 [10]: 4.37 µM
TGI [10]: 12.6 µM
GI50 [11]: 5.56 µM
TGI [11]: 10.9 µM
GI50 [12]: 6.79 µM
TGI [12]: 39.5 µM
GI50 [13]: 4.96 µM
TGI [13]: 9.93 µM
GI50 [14]: 4.48 µM
TGI [14]: 9.28 µM
GI50 [15]: 5.49 µM
TGI [15]: 10.9 µM
GI50 [16]: 3.66 µM
TGI [16]: 8.83 µM
GI50 [17]: 5.63 µM
TGI [17]: 10.9 µM
GI50 [18]: 5.04 µM
TGI [18]: 10.2 µM
GI50 [19]: 5.25 µM
TGI [19]: 10.4 µM
GI50 [20]: 7.49 µM
TGI [20]: 36.4 µM
GI50 [21]: 4.58 µM
TGI [21]: 9.64 µM
GI50 [22]: 4.74 µM
TGI [22]: 12.1 µM
GI50 [23]: 6.28 µM
TGI [23]: 12.5 µM
GI50 [24]: 4.6 µM
TGI [24]: 9.56 µM
GI50 [25]: 4.15 µM
TGI [25]: 8.85 µM
GI50 [26]: 9.94 µM
TGI [26]: 24.2 µM
GI50 [27]: 5.38 µM
TGI [27]: 10.5 µM
GI50 [28]: 7.5 µM
TGI [28]: 19.5 µM
GI50 [29]: 6.26 µM
TGI [29]: 11.8 µM
GI50 [30]: 5.45 µM
TGI [30]: 10.5 µM
GI50 [31]: 3.68 µM
TGI [31]: 9.82 µM
GI50 [32]: 5.89 µM
TGI [32]: 11.1 µM
GI50 [33]: 4.07 µM
TGI [33]: 9.11 µM
GI50 [34]: 8.18 µM
TGI [34]: 30.2 µM
GI50 [35]: 5.88 µM
TGI [35]: 12.2 µM
GI50 [36]: 1.89 µM
TGI [36]: 7.25 µM
GI50 [37]: 5.47 µM
TGI [37]: 11.2 µM
GI50 [38]: 6.09 µM
TGI [38]: 11.7 µM
GI50 [39]: 5.31 µM
TGI [39]: 10.5 µM
GI50 [40]: 6.5 µM
TGI [40]: 12.6 µM
GI50 [41]: 6.06 µM
TGI [41]: 13.5 µM
GI50 [42]: 4.47 µM
TGI [42]: 9.78 µM
GI50 [43]: 5.63 µM
TGI [43]: 11.5 µM
GI50 [44]: 5.56 µM
TGI [44]: 11.1 µM
GI50 [45]: 5.3 µM
TGI [45]: 10.6 µM
GI50 [46]: 9.04 µM
TGI [46]: 36.8 µM
GI50 [47]: 5.82 µM
TGI [47]: 11.6 µM
GI50 [48]: 6.97 µM
TGI [48]: 20 µM
GI50 [49]: 6.11 µM
TGI [49]: 12.7 µM
GI50 [50]: 6.04 µM
TGI [50]: 12.1 µM
GI50 [51]: 5.64 µM
TGI [51]: 11.4 µM
GI50 [52]: 5.74 µM
TGI [52]: 13.7 µM
GI50 [53]: 6.07 µM
TGI [53]: 11.6 µM
GI50 [54]: 4.93 µM
TGI [54]: 16.9 µM
GI50 [55]: 5.21 µM
TGI [55]: 10.2 µM
GI50 [56]: 5.88 µM
TGI [56]: 11.3 µM
GI50 [57]: 5.54 µM
TGI [57]: 11.1 µM
GI50 [58]: 5.58 µM
TGI [58]: 11.4 µM
